Source: PubChem BioAssay (NCI)
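Interpolation was linear, between the two tested concentrations surrounding the appropriate level; five concentrations were tested over 48 hours in 96-well plates. The concentration for full growth arrest is given as TGI.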

Experiments:
Assay in all cases: inhibition of tumour cell growth, NCI panel, 48 h
[1] = tested on: SN12C renal
[2] = tested on: UACC-62 melanoma
[3] = tested on: A549 NSCLC
[4] = tested on: CCRF-CEM leukemia
[5] = tested on: U251 CNS
[6] = tested on: SK-MEL-2 melanoma
[7] = tested on: NCI-H226 lung
[8] = tested on: A498 renal
[9] = tested on: BT-549 breast
[10] = tested on: SNB-19 CNS

What does the source list for `CS(=O)(=O)Nc1ccc2c(c1)N(S(C)(=O)=O)CC2CCl` (stereo not given)?
TGI [1]: > 100 µM; TGI [2]: > 100 µM; TGI [3]: > 100 µM; TGI [4]: > 100 µM; TGI [5]: > 100 µM; TGI [6]: > 100 µM; TGI [7]: > 100 µM; TGI [8]: > 100 µM; TGI [9]: > 100 µM

With `O=C1C=CC=C/C1=C1\N=C(c2ccccc2OCC(=O)c2ccccc2)SS1` as the compound, how does the TGI [1] read?
The TGI was greater than 100 µM.

What about the TGI [2] of the same compound?
The TGI was greater than 100 µM.

And the TGI [3]?
The TGI was greater than 100 µM.

What about the TGI [4] of the same compound?
The TGI was greater than 100 µM.

What about the TGI [5] of the same compound?
Its TGI is greater than 100 µM.

And the TGI [6]?
The TGI was greater than 100 µM.

And the TGI [7]?
The TGI was greater than 100 µM.

What about the TGI [8] of the same compound?
The TGI was greater than 100 µM.

And the TGI [10]?
The TGI was greater than 100 µM.

And the TGI [9]?
The TGI was greater than 100 µM.

`Cc1ccc2c(c1)-c1c(C#N)c(N)nc(-c3ccc(Cl)cc3)c1CCS2(=O)=O` was tested. Which TGI [1] did it give?
The TGI was greater than 100 µM.

And the TGI [2]?
The TGI was greater than 100 µM.

What about the TGI [3] of the same compound?
Its TGI is greater than 100 µM.

And the TGI [4]?
Its TGI is greater than 23.7 µM.

And the TGI [5]?
Its TGI is greater than 100 µM.

And the TGI [6]?
The TGI was greater than 100 µM.

What about the TGI [7] of the same compound?
Its TGI is greater than 100 µM.

What about the TGI [8] of the same compound?
The TGI was greater than 60.5 µM.

What about the TGI [10] of the same compound?
The TGI was greater than 100 µM.

And the TGI [9]?
Its TGI is greater than 100 µM.

Which TGI [1] does the source give for `C=C1C(OC2O[C@@H]3O[C@@]4(C)CC[C@H]5[C@H](C)CC[C@@H](C2=C)[C@@]35O4)O[C@@H]2O[C@@]3(C)CC[C@H]4[C@H](C)CC[C@@H]1[C@@]24O3` (stereo not given in full) here?
Its TGI is greater than 50 µM.

And the TGI [2]?
Its TGI is greater than 50 µM.

What about the TGI [3] of the same compound?
Its TGI is greater than 50 µM.

What about the TGI [4] of the same compound?
The TGI was greater than 50 µM.

What about the TGI [5] of the same compound?
The TGI was greater than 50 µM.

And the TGI [6]?
Its TGI is greater than 50 µM.

And the TGI [7]?
The TGI was greater than 50 µM.

What about the TGI [8] of the same compound?
The TGI was greater than 50 µM.

What about the TGI [10] of the same compound?
Its TGI is greater than 50 µM.

What about the TGI [9] of the same compound?
The TGI was greater than 50 µM.

With `CC1C(NNc2ccccc2)Oc2cc3c(cc2C1c1ccccc1O)OCO3` (stereo not given) as the compound, how does the TGI [1] read?
Its TGI is 20.1 µM.

What about the TGI [2] of the same compound?
The TGI was 17.2 µM.

And the TGI [3]?
The TGI was 15.2 µM.

What about the TGI [4] of the same compound?
The TGI was 13 µM.

What about the TGI [5] of the same compound?
The TGI was 22.4 µM.

And the TGI [6]?
The TGI was 25.6 µM.

What about the TGI [7] of the same compound?
Its TGI is 33.2 µM.

What about the TGI [8] of the same compound?
Its TGI is 29.2 µM.

And the TGI [10]?
The TGI was 27.4 µM.

What about the TGI [9] of the same compound?
Its TGI is 27.4 µM.

With `CN(C)c1ccc(/C=C(\NC(=O)c2ccccc2)c2nn(C)c(=O)o2)cc1` as the compound, how does the TGI [1] read?
The TGI was greater than 100 µM.

And the TGI [2]?
Its TGI is greater than 100 µM.

And the TGI [3]?
The TGI was greater than 100 µM.

And the TGI [4]?
The TGI was greater than 100 µM.

And the TGI [5]?
The TGI was 54.3 µM.

What about the TGI [6] of the same compound?
Its TGI is greater than 100 µM.

And the TGI [7]?
The TGI was 93.8 µM.

What about the TGI [8] of the same compound?
The TGI was greater than 100 µM.

And the TGI [10]?
Its TGI is 80 µM.

And the TGI [9]?
Its TGI is greater than 100 µM.

Which results are given for `COc1cccc2c1C(=O)c1c(O)c3c(c(O)c1C2=O)C[C@H](O)C[C@@H]3OC1CC(N)C(O)C(C)O1` (stereo not given in full)?
TGI [2]: 1.82 µM; TGI [3]: 14.1 µM; TGI [4]: 6.06 µM; TGI [6]: 5.41 µM; TGI [7]: 2.81 µM; TGI [8]: 4.5 µM; TGI [10]: 15.2 µM; TGI [9]: 16 µM

`Cc1[nH]c(=O)nc(NCCNCCO)c1C(=O)Nc1cccc2cc3ccccc3cc12` was tested. Which TGI [1] did it give?
The TGI was greater than 100 µM.

What about the TGI [2] of the same compound?
The TGI was greater than 100 µM.

What about the TGI [3] of the same compound?
Its TGI is greater than 100 µM.

And the TGI [4]?
Its TGI is greater than 100 µM.

What about the TGI [5] of the same compound?
The TGI was greater than 100 µM.

And the TGI [6]?
Its TGI is greater than 100 µM.

What about the TGI [7] of the same compound?
The TGI was greater than 100 µM.

And the TGI [8]?
The TGI was greater than 100 µM.

And the TGI [10]?
Its TGI is greater than 100 µM.

What about the TGI [9] of the same compound?
The TGI was greater than 100 µM.

Which results are given for `COc1cc(C(c2c(O)c3ccccc3oc2=O)c2c(O)c3ccccc3oc2=O)cc(Br)c1O`?
TGI [1]: 29.8 µM; TGI [2]: 29.6 µM; TGI [3]: 35.6 µM; TGI [5]: 31.9 µM; TGI [6]: 42.5 µM; TGI [7]: 49.1 µM; TGI [8]: 29.4 µM; TGI [10]: 36.1 µM; TGI [9]: 32.5 µM

For `O=c1nc2c(c(-c3ccc(Br)cc3)[nH]1)COC/C2=C\c1ccc(Br)cc1`, which TGI [1] is on record?
The TGI was greater than 50 µM.

And the TGI [2]?
The TGI was greater than 50 µM.

What about the TGI [4] of the same compound?
Its TGI is greater than 50 µM.

And the TGI [5]?
Its TGI is greater than 50 µM.

And the TGI [6]?
Its TGI is greater than 50 µM.

What about the TGI [7] of the same compound?
Its TGI is greater than 50 µM.

And the TGI [8]?
The TGI was greater than 50 µM.

What about the TGI [10] of the same compound?
Its TGI is greater than 50 µM.

What about the TGI [9] of the same compound?
The TGI was greater than 50 µM.

For `CCC(CO)Nc1nc(NCc2ccccc2)c2ncn(C(C)C)c2n1` (stereo not given), which TGI [1] is on record?
Its TGI is greater than 100 µM.

What about the TGI [2] of the same compound?
Its TGI is 47 µM.

What about the TGI [3] of the same compound?
The TGI was greater than 100 µM.

What about the TGI [4] of the same compound?
The TGI was greater than 86.8 µM.

And the TGI [5]?
The TGI was greater than 100 µM.

And the TGI [6]?
Its TGI is 38.9 µM.

And the TGI [7]?
The TGI was 39.4 µM.

What about the TGI [8] of the same compound?
The TGI was 77.3 µM.

What about the TGI [10] of the same compound?
The TGI was greater than 100 µM.

And the TGI [9]?
Its TGI is greater than 55.3 µM.
